Legend:
[1] = system: Naïve CD4+ Foxp3/GFP− cells; assay: Two-phase induction/expansion of iTregs, Method 1 (anti-CD3/anti-CD28 plus inhibitor, then rIL-2); type: cell-based, mouse
T effector (Teff) cells = details: Teff:Treg 1:1, after repeated re-stimulation
iTreg cells = assay: Stability of Foxp3 expression of induced iTregs after re-stimulation with anti-CD3/anti-CD28 mAbs; type: cell-based, mouse; details: after repeated re-stimulation with anti-CD3/anti-CD28 mAbs; nTreg cells 80%
Protocol: FIGS. 4A-4B. Stability of Foxp3 expression and suppressor function of the two-phase induced iTreg T cells. The nTreg cells were isolated from spleen of naïve mice (left panel). Naïve mouse CD4^+Foxp3/GFP^− cells (1×10^6/ml) cultured with APCs were stimulated with anti-CD3 mAb in the presence of 5 ng/ml TGF-β, 5 μg/ml anti-IL-2 mAb (S4B6), or 100 nM CP-690,550 for 3 days. After washing, fresh medium was supplemented with 10 units/ml rIL-2 and cultured for additional 3 days (total 6 day culture). All these 4 populations were subsequently re-stimulated with anti-CD3 mAb/anti-CD28 mAb for 3 days and examined by FACscan for Foxp3 expression (FIG. 4A). Purified naive CD4^+Foxp3/GFP^− cells labeled with CFSE were used as T-effector (Teff) cells and mixed with re-stimulated nTreg cells or re-stimulated CP-690,550-induced iTreg cells. Proliferation was measured by the number of Teff cell divisions (FIG. 4B).
Furthermore, the stability of Foxp3 expression of anti-IL-2 mAb-(S4B6) or Jak3 inhibitor (CP-690,550)-induced iTregs was compared with TGF-β-induced iTregs.

transplant patients = details: compared with OKT3 mAb; cited from earlier work

C[C@@H]1CCN(C(=O)CC#N)C[C@@H]1N(C)c1ncnc2[nH]ccc12 [CP-690,550]
Foxp3 expression during proliferation (cell divisions) ([1]; 6-day culture): maintained similar levels of Foxp3 expression
number of CD4+CD25+Foxp3/GFP+ cells on day 6 of culture ([1]; from initial 0.05×10^6 CD4+ Foxp3/GFP− cells): 0.4×10^6 cells
expansion in the number of iTreg cells ([1]; initial 3-day exposure, day 6 of culture): 8 fold
suppressor function of induced iTreg cells (T effector (Teff) cells): maintained very potent suppressor function
induced iTreg cells that maintained Foxp3 expression (iTreg cells): 75%

TGF-β
induced iTreg cells that maintained Foxp3 expression (iTreg cells): 4.3%

OKT3 mAb: mouse anti-human CD3 agonist mAb
adverse effects in patients (transplant patients): elicited the release of many cytokines causing flu-like symptoms

O=C(N/N=C/c1coc2ccccc2c1=O)c1cccnc1 [Stat5 inhibitor]
naïve CD4+ Foxp3/GFP− cells converted into CD4+CD25+Foxp3/GFP+ iTregs ([1]; 100 ng/ml Stat5 inhibitor first 3 days, then rIL-2 3 days, untreated controls 7%): 36%
